Data from ChEMBL document CHEMBL3351859, “Indoleamine 2,3-dioxygenase inhibitors: potential treatment for cancer, sepsis, and more” (ACS Med Chem Lett, 2014).

Molecular target: Indoleamine 2,3-dioxygenase 1 (Homo sapiens, UniProt P14902)
Experiment: Inhibition of intracellular IDO1 activity in human HeLa cells assessed as L-kynurenine production by Ehrlichs test
Assay type: cell-based

Sequence of Indoleamine 2,3-dioxygenase 1 (P14902 whole entry): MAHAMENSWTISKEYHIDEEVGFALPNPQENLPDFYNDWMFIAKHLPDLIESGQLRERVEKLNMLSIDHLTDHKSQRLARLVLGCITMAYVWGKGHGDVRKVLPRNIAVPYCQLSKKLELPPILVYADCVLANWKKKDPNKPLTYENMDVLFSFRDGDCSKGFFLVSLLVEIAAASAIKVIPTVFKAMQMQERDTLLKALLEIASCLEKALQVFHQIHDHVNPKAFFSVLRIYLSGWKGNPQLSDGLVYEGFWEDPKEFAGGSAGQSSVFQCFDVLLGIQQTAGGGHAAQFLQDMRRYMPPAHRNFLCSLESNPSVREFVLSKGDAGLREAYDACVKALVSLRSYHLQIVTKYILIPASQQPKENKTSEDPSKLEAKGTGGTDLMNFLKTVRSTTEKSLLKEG

Row | IC50 [nM] | Structure (SMILES)
1 | 100 | N#Cc1cc(Nc2cn[nH]n2)ccc1Cl
2 | 1000 | O=C(O)C1CC(Cc2cc(Cl)ccc2Nc2cn[nH]n2)C1 (stereo unspecified)
3 | 100 | CCc1cc(Nc2cnn[nH]2)ccc1Cl
4 | 1000 | CS(=O)(=O)NCc1cc(Cl)ccc1Nc1cnn[nH]1
5 | < 100 | Cc1cc(F)ccc1Nc1c[nH]nn1
6 | < 100 | CCc1cc(Cl)ccc1Nc1cnn[nH]1
